Measured values reported in patent US8772463B2, “Fluorescent dye-labeled glucose bioprobe, synthesis method and usage thereof” (SNU R&DB Foundation, priority 2007, dated 2014).

Assays:
cells = experiment: Cell viability, CCK-8 kit; type: cell-based; conditions: Cy3-Glc-α 12.5 μM
Description: (2) Therefore, Cy3-Glc-α should not affect cell viability. The viability of cells treated with Cy3-Glc-α (12.5 μM) by using a CCK-8 kit (Cell Counting Kit-8, Dojindo, Japan) was measured by using an ELISA plate reader (ELx800™, BioTex, USA) DP. CCK-8 is a colorimetric assay for determining the number of viable cells in cell proliferation and cytotoxicity assays. The principle of measuring cell viability of CCK-8 is the same as that of MTT. However, CCK-8 is more sensitive than MTT.

A549 cells [1] = experiment: Probe uptake by A549 cells, inverted fluorescent microscope (α/β anomers, alanine, 2-NBDG comparison); type: cell-based, human
Description: (§1) 1×10^4 cells were cultured on a Lab-Tek glass chamber slide (Nalge Nunc International, Naperville, Ind., USA) in 35 mm cell culture dish. After 24 h, the cells were treated for each experimental purpose. Then, the medium was replaced with RPMI 1640 medium containing 12.5 μM of Cy3-Glc-α. The cells were exposed to Cy3-Glc-α for 40 min, then washed with PBS 3 times. Finally, the glass chamber slide was taken from culture dish and loaded on the fluorescence microscope (Axiovert 200, Carl Zeiss, Germany). Fluorescence images of 35-50 cells were taken by CCD camera (Axiocam MRm, Germany) and fluorescence intensity of each cell was measured by Axiovision (program for data analysis). An area as ROIs (regions of interest) which contains a cell in phase-contrast image was drawn using Axiovision. Axiovision analyzed CCD camera images and provided the digitized mean of fluorescence intensity in the ROIs that the present inventors had established. The present inventors subtracted the background intensity from the fluorescence intensity to get the fluorescence intensity value that a cell contained. With the method described above, the present inventors digitized fluorescence intensity and performed various experiments.
To confirm the above hypothesis, real-time uptake of Cy3-Glc-α was measured, and the results were compared to those of Cy3-Glc-β by live imaging of A549 cells by using inverted fluorescent microscope. […] This led the present inventors to the conclusion that the stereochemistry at the C-1 anomeric position definitely influences the efficiency of mimicking glucose, and this might be due to the binding orientation of D-glucose in GLUTs [P. W. Hruz, M. M. Mueckler, Mole. Memb. Biol. 2001, 18, 183-193].
The cellular uptake of 2-NBDG was not detected under identical experimental conditions used for Cy3-Glc-α. […] To achieve the fluorescence intensity with 2-NBDG to 80% that of Cy3-Glc-α, a 10 fold increase in 2-NBDG concentration and a 20 fold increase in the lens exposure time in D-glucose-depleted medium were needed.
In addition, the cellular uptake of 2-NBDG in normal media (containing 10 mM D-glucose) was extremely low (>60% uptake reduction in normal media) and was hardly detected using fluorescent based imaging methods [R. G. O'Neil, L. Wu, N. Mullani, Mol. Imaging Biol. 2005, 7, 388-392]. 2-NBDG was detectable only in glucose-depleted media, and this means a critical limitation of bioapplication of 2-NBDG in the biologically significant environments. In comparison with 2-NBDG, the reduction of Cy3-Glc-α uptake in glucose-containing media was only 5% compared to that in glucose-depleted media (FIG. 18). Therefore, it was confirmed that Cy3-Glc-α was capable of being applied to a bioassay system regardless of glucose starvation.

A549 cells [2] = experiment: Cy3-Glc-α intracellular uptake efficiency, confocal laser scanning microscope (CLSM); type: cell-based, human; conditions: CLSM live-cell imaging
Description: 1×10^4 cells were cultured on a Lab-Tek glass chamber slide (Nalge Nunc International, Naperville, Ind., USA) in 35 mm cell culture dish. After 24 h, the glass chamber slide was taken from culture dish and loaded on chamber. Then, the chamber was attached to the microscope. The temperature of the chamber was maintained at 37° C. After injection of 12.5 μM of Cy3-Glc-α in RPMI 1640 in the chamber, the fluorescent image was taken every 60 sec, digitized, and saved on a computer for later analysis.
(1) To evaluate the applicability of the fluorescent glucose analogue (Cy3-Glc-α) of the present invention, finally obtained in Example 1, as a bioprobe, the intracellular uptake efficiency of Cy3-Glc-α was measured by using a confocal laser scanning microscope (CLSM).
(2) In addition, the experiment was performed by using the confocal laser scanning microscope to measure the optimum incubation time required to achieve the maximum uptake of the analogue Cy3-Glc-α.

NIH/3T3 cells = experiment: Cy3-Glc-α uptake in normal cells versus cancer cells, inverted fluorescent microscope; type: cell-based, murine
Description: as §1
(2) Based on this observation, further studies in bioimaging and bioapplication were performed only with the α anomer as choice of the bioprobe. […]

A549 cells [3] = experiment: Fluorescence imaging analysis of competitive probe uptake; type: cell-based, human; conditions: probe 12.5 μM
Description: Also, NIH/3T3, A549, C2C12 and 3T3/L1 cells, each having a population of 4×10^4 cells, were cultured on 35 mm cell culture dishes (BD Falcon™ Cell Culture Dish; BD Bioscience, CA, USA). Two days later, the cell culture medium was replaced with a glucose-depleted medium (DMEM, glucose free, GIBCO) supplemented with 0 mM, 11 mM or 55 mM D-glucose and 10 μM GB2-Cy3. After incubation at 37° C. for 30 min, the cells on the cover slips in the 35-mm cell culture dishes were washed twice with cold PBS and the cover slips were mounted on the caster of a fluorescence microscope (Olympus IX71). During observation under the fluorescence microscope, the cells were maintained at 37° C. in the chamber. Fluorescence images of 35-50 cells were taken by CCD camera (Axiocam MRm, Germany) and each cell was measured for fluorescence intensity using the image data analysis program Image-Pro® Plus (MediaCybernetics, USA). As ROIs (regions of interest), areas which encompassed cells within phase-contrast images were drawn using Image-Pro® Plus. Image-Pro® Plus analyzed CCD camera images to produce the digitized mean of fluorescence intensity within the ROIs that the present inventors had established. The background intensity was subtracted from the detected fluorescence intensity to give the fluorescence intensity value that a cell contained. In this manner, the fluorescence intensity was digitized for performing various experiments.
NIH/3T3 and A549 cells were cultured on microscope cover glasses in 35 mm cell culture dishes and subjected to fluorescence imaging analysis according to the protocol.

In the case of `C[N+]1=C(/C=C/C=C2/N(CCCCC(=O)NCCOCCOCCNCCOC3OC(CO)C(O)C(O)C3O)c3ccccc3C2(C)C)C(C)(C)c2ccccc21` [Cy3-Glc-α, [2-(N-Cy3-3,6-dioxaoctane-1,8-diaminoethyl)]-α-D-glucose], the cell viability (cells) is reported as “does not affect cell viability”, the “uptake efficiency with or without alanine (osmotic pressure)” value (A549 cells [1]; 55 mM alanine in media) is reported as “no difference in the uptake efficiency” and the “reduction of uptake in glucose-containing media compared to glucose-depleted media” value (A549 cells [1]; A549 cells) is reported as 5%. For the same molecule, the “uptake of Cy3-Glc-α superior to that of Cy3-Glc-β” value (A549 cells [1]; A549 cells, live imaging) was 40%, the “incubation time to maximum uptake” value (A549 cells [2]) was ≤ 35 min and the “Cy3-Glc-α uptake in NIH/3T3 relative to that of A549 cells” value (NIH/3T3 cells) was 30%. For the same molecule, the “cellular uptake versus D-glucose concentration” value (A549 cells [3]) was “decreased in the cellular uptake of the glucose analogues in D-glucose dose-dependent manners”, the “change in the fluorescent intensity of ROIs when D-glucose changed from 10 mM to 55 mM” value (A549 cells [3]) was “approximately 5%” and the “fluorescent intensity of treated cells, GB2-Cy3 normalized to 100” value (A549 cells [3]) was 4.
